Assay [1] deals with T1, KRas G12D (Homo sapiens, UniProt P01116, G12D). Description: KRas G12D Surface Plasmon Resonance (SPR) Binding Assay. The settings on record: Biacore T200, biotinylated Avidin-tagged KRAS protein on SA chip, 20 C, 1:1 binding model. On the procedure:
This Example illustrates that exemplary compounds of the present invention bind to KRas G12D as measured by surface plasmon resonance (SPR). Briefly, 1 L of 1.05×HBS-Mg buffer (262.5 mM BioUltra Hepes, pH 7.5, 157.5 mM NaCl, 105 mM MgCl2, 0.525 mM TCEP, […] Brij-35) was prepared and filter sterilized using a 0.22 μm bottle top filter. Approximately 50 mL of 1.05×HBS-Mg buffer was removed and saved for future dilutions. A 50 mL aliquot of DMSO (Sigma Aldrich DMSO Lot. #SHBK2079) was added and continued to stir for 10 minutes, creating the final 1.0×HBS-Mg buffer (250 mM BioUltra Hepes pH 7.5, 150 mM NaCl, 100 mM MgCl2, 0.5 mM TCEP, 0.03% Brij-35). Biacore T200 instrument was primed using 1.0×HBS-Mg buffer before docking a GE Streptavidin (SA) chip and then primed two additional times prior to beginning the immobilization step. All immobilized protein mixtures were created using 3-5 mg/mL Biotinylated Avidin-tagged KRAS protein using the following immobilization settings: SA chip type, 1 flow cells per cycle, 720 second contact time, and 5 μL/min flow rate. Normalization of the detector was also performed during the immobilization step using the GE BiaNormalize solution. All compounds were diluted to 10 mM in 100% DMSO prior to being diluted 20× in 1.05× buffer. Another 10× dilution was created using 1.0× buffer prior to performing a series of 3× dilutions to create a compound concentration curve using the following assay settings: 20 C analysis temperature, General Settings=10 Hz data collection rate and multi-detection; Assay Steps=all set to LMW kinetics; Cycle Types=LMW kinetics (60s contact time, 120s dissociation time, 100 μL/min flow rate, extra wash after injection with 50% DMSO, flow path 1,2,3,4); Flow path detection=2-1, 4-3). Data evaluation was performed using the Biacore T200 Evaluation software and data fit to 1:1 binding model.
Target sequence in this assay (P01116 1-188 isoform P01116-2 G12D): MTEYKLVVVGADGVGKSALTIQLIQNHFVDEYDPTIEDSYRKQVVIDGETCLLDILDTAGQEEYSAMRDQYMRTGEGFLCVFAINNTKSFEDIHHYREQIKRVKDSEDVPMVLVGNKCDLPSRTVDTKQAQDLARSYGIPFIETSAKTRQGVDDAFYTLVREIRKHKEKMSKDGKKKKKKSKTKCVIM

In assay [2] the test system is KRas G12D-mediated Phosphorylation of ERK. The experiment in a line: Inhibition of KRas G12D-mediated Phosphorylation of ERK in AGS cells. The settings on record: Homo sapiens; AGS cells expressing G12D, 3 hours, phospho-ERK normalized to GAPDH. Format: cell-based. As for the experimental part:
AGS cells (ATCC CRL-1739) expressing G12D were grown in DMEM medium supplemented with 10% fetal bovine serum, 10 mM HEPES, and Penicillin/Streptomycin. Cells were plated in tissue culture treated 96 well plates at a density of 40,000 cells/well and allowed to attach for 12-14 hours. Diluted compounds were then added in a final concentration of 0.5% DMSO. After 3 hours, the medium was removed, 150 μl of 4.0% formaldehyde was added and the plates incubated at room temperature for 20 minutes. The plates were washed with PBS, and permeabilized with 150 μL of ice cold 100% methanol for 10 minutes. Non-specific antibody binding to the plates was blocked using 100 μL Licor blocking buffer (Li-Cor Biotechnology, Lincoln NE) for 1 hour at room temperature.
The amount of phospho-ERK was determined using an antibody specific for the phosphorylated form of ERK and compared to the amount of GAPDH. Primary antibodies used for the detection were added as follows: Phospho-ERK(Cell Signaling cs-9101) diluted 1:500 and GAPDH(Millipore MAB374) diluted 1:5000 in Licor block+0.05% Tween 20. The plates were incubated for 2 hours at room temperature. The plates were washed with PBS+0.05% Tween 20.
Secondary antibodies used to visualize primary antibodies were added as follows: Anti-rabbit-680 diluted 1:1000 and Anti-mouse-800 diluted 1:1000 both in Licor block+0.05% Tween20, and were incubated for 1 hour at room temperature. The plates were washed with PBS+0.05% Tween 20. A 100 μl aliquot of PBS was added to each well and the plates were read on a Li-Cor Odyssey CLX plate reader.
The phospho-ERK(Thr202/Tyr204 signal was normalized to the GAPDH signal for each well and percent of DMSO control values were calculated. IC50 values were generated using a 4-parameter fit of the dose response curve.

Assay [3] deals with T1, KRas G12D. The experiment in a line: KRas G12D Binding Assay (TR-FRET displacement of labeled tracer). The following applies: TR-FRET displacement of Cy5 labelled tracer, biotinylated GDP-loaded KRAS G12D (aa 1:169), 60 minute incubation at 22° C. More on the design: corresponding to amino acids 1:169, produced at Array BioPharma; biotin (protein is biotinylated). The essentials: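 Biotinylated GDP-loaded human KRAS G12D (aa 1–169) incubated with Cy5 tracer, Eu-streptavidin and compound (2% DMSO final) in 50 mM HEPES pH 7.5, 5 mM MgCl2, 0.005% Tween-20, 1 mM DTT, 60 min at 22 °C. TR-FRET ratio converted to percent of control; IC50 at 50 POC from 4-parameter logistic fit.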
Target sequence in this assay (P01116 1-169 isoform P01116-2 G12D): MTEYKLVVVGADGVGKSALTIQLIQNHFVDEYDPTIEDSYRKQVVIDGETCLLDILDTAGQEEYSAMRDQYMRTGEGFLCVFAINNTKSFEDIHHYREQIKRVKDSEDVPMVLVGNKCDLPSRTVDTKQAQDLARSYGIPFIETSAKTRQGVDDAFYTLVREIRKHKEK

With `CN1CCC[C@H]1COc1nc2c(c(N3C[C@H]4CC[C@@H](C3)N4)n1)CCN(c1cccc3c1C(CC#N)CCC3)C2` (stereo partly drawn) [Example 85, 2-(8-(4-((1R,5S)-3,8-diazabicyclo[3.2.1]octan-3-yl)-2-(((S)-1-methylpyrrolidin-2-yl)methoxy)-5,8-dihydropyrido[3,4-d]pyrimidin-7(6H)-yl)-1,2,3,4-tetrahydronaphthalen-1-yl)acetonitrile], in assay [1], binding was characterised by a dissociation constant (Kd) of 1510 nM.

As to `CCc1cccc2cccc(N3CCc4c(nc(OCC56CCCN5[C@@H](COC(=O)N(C)C)CC6)nc4N4CC5CCC(C4)N5)C3)c12` (stereo partly drawn) [Example 13, (7a-(((4-((1R,5S)-3,8-diazabicyclo[3.2.1]octan-3-yl)-7-(8-ethylnaphthalen-1-yl)-5,6,7,8-tetrahydropyrido[3,4-d]pyrimidin-2-yl)oxy)methyl)hexahydro-1H-pyrrolizin-3-yl)methyl dimethylcarbamate (trans enantiomers)], the figures for the IC50 in assay [2] and in assay [3] were 261 nM and 1.3 nM, respectively.

For `Oc1cc(N2CCc3c(nc(OCC45CCCN4CCC5)nc3N3C[C@H]4CC[C@@H](C3)N4)C2)c2c(Cl)cccc2c1` [Example 115, 4-(4-((1R,5S)-3,8-diazabicyclo[3.2.1]octan-3-yl)-2-((hexahydro-1H-pyrrolizin-7a-yl)methoxy)-5,6-dihydropyrido[3,4-d]pyrimidin-7(8H)-yl)-5-chloronaphthalen-2-ol], the 50% inhibitory concentration (IC50) was found to be 118 nM in assay [2] and 0.6 nM in assay [3]. Consider `CCc1cccc2cccc(N3CCc4c(nc(OC[C@@]56CCCN5C[C@H](F)C6)nc4[C@H]4C[C@H]5CC[C@@H](C4)N5)C3)c12` [Example 121, 4-((1R,3r,5S)-8-azabicyclo[3.2.1]octan-3-yl)-7-(8-ethylnaphthalen-1-yl)-2-(((2R,7aS)-2-fluorotetrahydro-1H-pyrrolizin-7a(5H)-yl)methoxy)-5,6,7,8-tetrahydropyrido[3,4-d]pyrimidine], for which the IC50 in assay [2] came to 2360 nM; in assay [3] it was 8.7 nM. Regarding `CCc1c(F)ccc2cc(O)cc(N3CCc4c(nc(OCC56CCCN5CCC6)nc4N4C[C@H]5CC[C@@H](C4)N5)C3)c12` [Example 119, 4-(4-((1R,5S)-3,8-diazabicyclo[3.2.1]octan-3-yl)-2-((hexahydro-1H-pyrrolizin-7a-yl)methoxy)-5,6-dihydropyrido[3,4-d]pyrimidin-7(8H)-yl)-5-ethyl-6-fluoronaphthalen-2-ol], the IC50 in assay [2] is 7 nM; in assay [3], 1.6 nM. In the case of `CN1CCC[C@H]1COc1nc2c(c(N3C[C@@H]4C[C@H](CO)[C@H](C3)N4)n1)CCN(c1cc(O)cc3ccccc13)C2` [Example 120, 4-(4-((1S,5R,6S)-6-(hydroxymethyl)-3,8-diazabicyclo[3.2.1]octan-3-yl)-2-(((S)-1-methylpyrrolidin-2-yl)methoxy)-5,8-dihydropyrido[3,4-d]pyrimidin-7(6H)-yl)naphthalen-2-ol], in assay [1], the affinity, expressed as Kd, was 1400 nM. Turning to `Oc1cc(N2CCc3c(nc(OCC45CCCN4C[C@H](F)C5)nc3N3CC4CCC(C3)N4)C2)c2c(Cl)cccc2c1` (mixture of isomers) [Example 49, 4-(4-((1R,5S)-3,8-diazabicyclo[3.2.1]octan-3-yl)-2-((2-fluorotetrahydro-1H-pyrrolizin-7a(5H)-yl)methoxy)-5,8-dihydropyrido[3,4-d]pyrimidin-7(6H)-yl)-5-chloronaphthalen-2-ol], the IC50 amounted to 77 nM in assay [2] and 0.5 nM in assay [3]. Consider `CCc1cccc2cccc(N3CCc4c(nc(OCC56CCCN5C(COC(=O)N(C)OC)CC6)nc4N4C[C@H]5CC[C@@H](C4)N5)C3)c12` (mixture of isomers) [Example 68, (7a-(((4-((1R,5S)-3,8-diazabicyclo[3.2.1]octan-3-yl)-7-(8-ethylnaphthalen-1-yl)-5,6,7,8-tetrahydropyrido[3,4-d]pyrimidin-2-yl)oxy)methyl)hexahydro-1H-pyrrolizin-3-yl)methyl methoxy(methyl)carbamate], for which the figures for the half-maximal inhibitory concentration (IC50) in assay [2] and in assay [3] were 1330 nM and 5.9 nM, respectively. `CCc1cccc2cccc(N3CCc4c(nc(OCC56CCCN5C(COC(=O)N5CC[C@@H](OC)C5)CC6)nc4N4C[C@H]5CC[C@@H](C4)N5)C3)c12` (stereo partly drawn) [Example 106, (7a-(((4-((1R,5S)-3,8-diazabicyclo[3.2.1]octan-3-yl)-7-(8-ethylnaphthalen-1-yl)-5,6,7,8-tetrahydropyrido[3,4-d]pyrimidin-2-yl)oxy)methyl)hexahydro-1H-pyrrolizin-3-yl)methyl (3R)-3-methoxypyrrolidine-1-carboxylate]: the IC50 in assay [2] came out at 5110 nM; in assay [3], 7.2 nM.

Turning to `CCc1c(F)ccc2cccc(N3CCc4c(nc(OCC56CCCN5C[C@H](F)C6)nc4N4CC5CCC(C4)N5)C3)c12` (mixture of isomers) [Example 20, 4-((1R,5S)-3,8-diazabicyclo[3.2.1]octan-3-yl)-7-(8-ethyl-7-fluoronaphthalen-1-yl)-2-((2-fluorotetrahydro-1H-pyrrolizin-7a(5H)-yl)methoxy)-5,6,7,8-tetrahydropyrido[3,4-d]pyrimidine (racemic, trans)], the concentration for half-maximal inhibition (IC50) was determined as 539 nM in assay [2] and 2.8 nM in assay [3]. Taken in the same sequence, the figures for `CCc1cccc2cccc(N3CCc4c(nc(OCC56CCCN5C(COC(=O)N(CC)CC)CC6)nc4N4C[C@H]5CC[C@@H](C4)N5)C3)c12` (mixture of isomers) [Example 66, (7a-(((4-((1R,5S)-3,8-diazabicyclo[3.2.1]octan-3-yl)-7-(8-ethylnaphthalen-1-yl)-5,6,7,8-tetrahydropyrido[3,4-d]pyrimidin-2-yl)oxy)methyl)hexahydro-1H-pyrrolizin-3-yl)methyl diethylcarbamate] were 2210 nM and 4.6 nM. As for `CNC(=O)OC[C@H]1CCC2(COc3nc4c(c(N5CC6CCC(C5)N6)n3)CCN(c3cccc5cccc(F)c35)C4)CCCN12` (stereo partly drawn) [Example 34, (7a-(((4-((1R,5S)-3,8-diazabicyclo[3.2.1]octan-3-yl)-7-(8-fluoronaphthalen-1-yl)-5,6,7,8-tetrahydropyrido[3,4-d]pyrimidin-2-yl)oxy)methyl)hexahydro-1H-pyrrolizin-3-yl)methyl methylcarbamate (trans enantiomers)], the IC50 in assay [2] worked out at 3910 nM; in assay [3] it was 111 nM.

For the compound `CCc1cccc2cccc(N3CCc4c(nc(OCC56CCCN5C(COC(=O)N5CC[C@H](O)C5)CC6)nc4N4C[C@H]5CC[C@@H](C4)N5)C3)c12` (stereo partly drawn) [Example 105, (7a-(((4-((1R,5S)-3,8-diazabicyclo[3.2.1]octan-3-yl)-7-(8-ethylnaphthalen-1-yl)-5,6,7,8-tetrahydropyrido[3,4-d]pyrimidin-2-yl)oxy)methyl)hexahydro-1H-pyrrolizin-3-yl)methyl (3S)-3-hydroxypyrrolidine-1-carboxylate], the half-inhibitory concentration (IC50) in assay [2] came out at 561 nM; in assay [3] it was 2.3 nM.

The values above are taken from patent US12686692B2, “KRas G12D inhibitors” (Mirati Therapeutics, Inc., priority 2020, dated 2026).
